Source: US20040136938A1, “Composition of vitamin c and/or vitamin a” (priority 2000, published 2004)

Columns and labels:
[1] = system: fibroblasts of mammaplasty; experiment: Collagen synthesis by fibroblasts (Sirius red coloration); type: cell-based, human
Description: The fibroblasts of mammaplasty of a person, in passage 14, were seeded on 12-well plates at the rate of 0.5.10^5 cells per well. The cells are placed in culture for 48 hours in the presence of a DMEM culture medium at 10% of fetal calf serum (SVF), in stove (5% (v/v) CO2, 95% (v/v) air) at 37° C.
After rinsing with PBS, they are treated and placed again in culture for 48 hours in the presence of products to be tested and of DMEM without SVF.
The method is based on a specific coloration of collagen by the Sirius red. The cells are directly fixed by the Bouin liquid (1 ml/well) for 1 hour, after exhaustive rinsing with PBS. The fixer is then aspirated and the plates are rinsed with running water by immersion for 15 minutes.
The coloration is carried out under stirring for 1 hour (1 ml/well) and the plates are then rinsed with hydrochloric acid 0.01 N. Then the material is dissolved in 200 μl of sodium hydroxide 0.1N before transferring to the microtiter plates (Nunc). The optical density is measured at 550 nm against sodium hydroxide as a blank.
The counting of the cells is carried out in 4 wells of each plate, and one detaches the cells with tripsin at 0.05%.
One studied the effect of fucose and of the Mixture of oligofucoses-1 (at 10 μg/ml each) in the presence or absence of sodium ascorbate at 500 μg/ml. And then in the presence or absence of retinol (10 μg/ml).

[2] = system: fibroblasts of human skin; experiment: Cellular proliferation of fibroblasts of human skin ([3H]-thymidine incorporation, 72 h); type: cell-based; settings: for decrease in the cellular proliferation: retinol 20 μg/ml (69.72 μM) alone, vs. reference without retinol
Description: The Mixture of oligofucoses-1 as prepared in example 1 is tested in concentrations of 1 μg/ml and 10μg/ml, both alone and in the simultaneous presence of 375 μg/ml of sodium ascorbate and/or 20 μg/ml of retinol.
The fibroblasts of human skin used in this study come from the removal of skin from a person (28th passing). The cells were cultivated on 12-well plates, in a DMEM culture medium with 10% of fetal calf serum (SVF), 1% of antibiotics and of antifungus (PSF), and 1 μCi/ml of [^3H]-timidine (ICN) for 72 hours in the presence of the products to be tested at final concentrations of 1 μg/ml and 10 μg/ml.
After 72 hours of culture in stove (5% (v/v) CO2, 95% (v/v) air) at 37° C. in the presence of the tested products, the cells were washed four times with PBS, then the cellular carpet was detached for 0.05% of tripsin. Three ml of scintillation liquid were then added per sample, then the radioactivity incorporated in the cells is read in a computer with scintillation.
One incubated the cells with 20 μg/ml of retinol (69.72 μM). […] Two concentrations were tested: 1 μg/ml and 10 μg/ml.
One incubated the cells with 375 μg/ml of Na ascorbate (1.875 mM). […] Two concentrations were tested: 1 μg/ml and 10 μg/ml.
The cells were simultaneously incubated with 375 μg/ml of Na ascorbate and 20 μg/ml of retinol.

cells = settings: cited from earlier work

For `O=C1O[C@H]([C@@H](O)CO)C([O-])=C1O.[Na+]` [Na ascorbate, sodium ascorbate], the “effect on synthesis of collagen” value ([1]; sodium ascorbate 500 μg/ml alone, with respect to the effect of 50 μg/ml) was “activates the synthesis of collagen very little” and the “% vs. control (proliferation)” value ([2]; Na ascorbate 375 μg/ml alone) was −64.4%.

With `CC1=C(/C=C/C(C)=C/C=C/C(C)=C/CO)C(C)(C)CCC1` [Retinol, retinol] the “effect on synthesis of collagen” value ([1]; retinol alone (10 μg/ml)) was “inhibiting effect on the synthesis of collagen”, the “decrease in the cellular proliferation” value [2] was “about 45%” and the “decrease in the cellular proliferation” value ([2]; listed as retinol) was 42.5%. The “% vs. control (proliferation)” value ([2]; retinol 20 μg/ml alone) was −42.5%.

For `O=C1O[C@H]([C@@H](O)CO)C(O)=C1O` [ascorbate], the “concentration at which cytotoxic effect can be observed” value (cells; cell detachment, slowed proliferation, cellular death) is listed as “about 2.5 mM”.

For `O=C1O[C@H]([C@@H](O)CO)C(O)=C1O` [ascorbic acid], the “concentration from which cytotoxic effect starts” value (cells) is given as “about 0.01 % by weight”.

In the case of `C[C@H](O)[C@@H](O)[C@@H](O)[C@H](O)C=O` [fucose], the “effect on synthesis of collagen in the presence of retinol” value ([1]; 10 μg/ml with retinol 10 μg/ml, 48 h) is reported as “this inhibition is greatly abolished”, the “effect on biosynthesis of collagen in the presence of sodium ascorbate” value ([1]; 10 μg/ml with sodium ascorbate 500 μg/ml, 48 h) is reported as “stimulation of the biosynthesis of collagen” and the “decrease in the amount of collagen synthesized by the fibroblasts” value ([1]; fucose alone, 48 h, DMEM without SVF) is reported as “about 19%”.
